# Assay results from paper PMC4109680, “Identification and Preclinical Pharmacology of the γ-Secretase Modulator BMS-869780” (International Journal of Alzheimer's Disease, 2014).
# Assay: Pharmacokinetics in male cynomolgus monkeys
# Type: in vivo
# Details: cynomolgus monkey, plasma
# Procedure: Male Sprague-Dawley (SD) rats (300–350 g) were fasted overnight, and three per group received BMS-869780 either as an intravenous (IV) infusion in PEG400 : ethanol (90 : 10 w/w) at 1 mg/kg over 5 min via the jugular vein or as nanosuspension (d50 ca. 300 nm) by oral gavage at 5 mg/kg in Povidone K-30 : sodium lauryl sulfate : water (2.5 : 0.12 : 97.38 w/w/w/w). For the IV infusion, serial blood samples were obtained before dose and at 0.17, 0.25, 0.5, 0.75, 1, 2, 4, 6, 8, and 24 hours after dose. For the PO nanosuspension, serial blood samples were obtained before dose and at 0.25, 0.5, 0.75, 1, 2, 4, 6, 8, and 24 h after dose. Blood samples, ~0.3 mL, for all studies were collected from the jugular vein into K3EDTA-containing tubes and then centrifuged at 4°C (1500–2000 ×g) to obtain plasma, which was stored at −20°C until analysis by LC/MS/MS. In male beagle dogs, the PK of BMS-869780 was evaluated in a cross-over study design with a one-week washout between treatments. Dogs were fasted overnight, and three animals (9.5 to 10.7 kg) received BMS-869780 by IV infusion at 1 mg/kg over 5 minutes in PEG400 : ethanol (90 : 10 w/w) or as nanosuspension (d50 ca. 300 nm) by oral gavage at 5 mg/kg in Povidone K-30 : sodium lauryl sulfate : water (2.5 : 0.12 : 97.38 w/w/w/w). Serial blood samples (~0.3 mL) were collected from a saphenous vein into K3EDTA-containing tubes before dose and at 0.083, 0.17, 0.25, 0.5, 0.75, 1, 2, 4, 6, 8, and 24 hours after IV dose, and 0.25, 0.5, 0.75, 1, 2, 4, 6, 8, and 24 hours after oral dose, followed by centrifugation at 4°C (1500 to 2000 ×g) to obtain plasma. Samples were stored at −20°C until analysis of BMS-869780 levels by LC-MS/MS. In male cynomolgus monkeys, the PK of BMS-869780 was evaluated in a cross-over study design with a 1-week washout between treatments. Following an overnight fast, three animals (4.5 to 8 kg) received BMS-869780 by IV infusion via a femoral vein at 1 mg/kg over 10 minutes in PEG400 : ethanol (90 : 10), or by oral gavage at 5 mg/kg in Povidone K-30 : sodium lauryl sulfate : water (2.5 : 0.12 : 97.38). Serial blood samples, ~0.3 mL, were collected from a femoral artery into K3EDTA-containing tubes before dose and at 0.083, 0.17, 0.25, 0.5, 0.75, 1, 2, 4, 6, 8, and 24 hours after IV dose, and 0.25, 0.5, 0.75, 1, 2, 4, 6, 8, and 24 hours after oral dose, followed by centrifugation at 4°C (1500 to 2000 ×g) to obtain plasma. Samples were stored at −20°C until analysis of BMS-869780 levels by LC-MS/MS. The PK parameters of BMS-869780 were obtained by noncompartmental analysis of plasma concentration versus time data (WinNonlin software, Version 5.0; Pharsight Corporation, Mountain View, CA). The peak concentration (C max) and time for C max (T max) were recorded directly from experimental observations. The area under the curve from time zero to the last sampling time (AUC^0-T) and the area under the curve from time zero to infinity (AUC^INF) were calculated using a combination of linear and log trapezoidal summations. The total plasma clearance (CLTp), steady-state volume of distribution (Vss), apparent elimination half-life (T 1/2), and mean residence time (MRT) were estimated after IV administration. The absolute oral bioavailability (F) was estimated as the ratio of dose-normalized AUC values following oral and IV doses.
# Figure 9 Pharmacokinetics (PK) of BMS-869780 across species for prediction of human PK. Rats, dogs, and cynomolgus monkeys were dosed with BMS-869780 intravenously (IV ▲) at 1 mg/kg or oral nanosuspension (PO ●) at 5 mg/kg. Plasma concentrations of BMS-869780 were determined for up to 24 hours after the dose. (a) Rat. (b) Dog. (c) Cynomolgus monkey.
structure (smiles),measurement,setting,value
COc1cc(Nc2nc3n(n2)CCCC[C@H]3c2ccc(F)cc2)ccc1-n1cnc(Cl)c1 [BMS-869780],AUC(0-t),IV 1 mg/kg,2630 ± 926 nM·h
same,MRT,IV 1 mg/kg,3.8 ± 0.7 h
same,clearance,IV 1 mg/kg,0.912 ± 0.354 L/h/kg
same,half-life,IV 1 mg/kg,4 ± 0.5 h
same,Vd,"IV 1 mg/kg, read-out: Vss",3.7 ± 1.3 L/kg
same,AUC(0-t),PO suspension 5 mg/kg,2030 ± 1040 nM·h
same,Cmax,PO suspension 5 mg/kg,0.219 ± 0.094 µM
same,Tmax,PO suspension 5 mg/kg,2 h
same,bioavailability,PO suspension 5 mg/kg,16%
